Literature values in PMC11949389 (Polish Journal of Microbiology, 2025).
In brackets after ≈: the same amount, converted by molar mass. Like-named read-outs stand apart in the source and are kept apart here.

Key:
Candida parapsilosis = conditions: ref Iraji et al. 2020, Biernasiuk et al. 2022
Candida tropicalis = conditions: Candida tropicalis; ref Iraji et al. 2020; Stringaro et al. 2022
Candida albicans [1] = conditions: Candida albicans; ref Sharifzadeh et al. 2019; Iraji et al. 2020; Shaban et al. 2020; Stringaro et al. 2022; Biernasiuk et al. 2022
Candida krusei = conditions: Candida krusei; ref Sharifzadeh et al. 2019; Iraji et al. 2020; Biernasiuk et al. 2022; Stringaro et al. 2022
Candida dubliniensis = conditions: ref Iraji et al. 2020
Candida glabrata = conditions: Candida glabrata; ref Sharifzadeh et al. 2019; Iraji et al. 2020; Biernasiuk et al. 2022; Stringaro et al. 2022
Enterobacter cloacae = conditions: ref Sayout et al. 2020
Klebsiella oxytoca = conditions: ref Sayout et al. 2020
Enterobacter aerogenes = conditions: ref Sayout et al. 2020
Acinetobacter baumannii = conditions: ref Sayout et al. 2020
Staphylococcus aureus [2] = conditions: for MIC / tetracycline MIC: S. aureus; for MIC: ref Kwiatkowski et al. (2020); for MIC/Sensitivity: Staphylococcus aureus, ref Kwiatkowski et al. 2020, Sayout et al. 2020, Sousa Silveira et al. 2020, Macêdo et al. 2022, Noumi et al. 2023, Sharma et al. 2023; for tetracycline MIC: ref Sousa Silveira et al. (2020)
[3] = system: Vibrio anguillarum, and Vibrio harveyi; conditions: ref Rossi et al. (2021)
[4] = system: Mupirocin-resistant Staphylococcus aureus; conditions: ref Kwiatkowski et al. 2019
Klebsiella pneumoniae = conditions: ref Sayout et al. 2020, de Souza et al. 2021, Kwiatkowski et al. 2022
Escherichia coli = conditions: Escherichia coli; ref Owen et al. 2019; Sayout et al. 2020; Noumi et al. 2023
[5] = system: Mupirocin-susceptible Staphylococcus aureus; conditions: ref Kwiatkowski et al. 2019
Salmonella spp. = conditions: ref Sayout et al. 2020
[6] = system: Methicillin-resistant Staphylococcus aureus; conditions: MRSA isolates, ref Kwiatkowski et al. (2020)
Pseudomonas aeruginosa = conditions: Pseudomonas aeruginosa; ref Owen et al. 2019; Sim et al. 2019; Noumi et al. 2023
Candida auris [7] = conditions: Candida auris; ref Shaban et al. 2020
Candida auris [8] = conditions: ref Shaban et al. 2020
Candida albicans [9] = conditions: ref Shaban et al. 2020
Staphylococcus aureus [10] = conditions: ref Mastoor et al. 2022
[11] = in combination with penicillin G

Compound	MIC/Sensitivity (Candida parapsilosis)	MIC/Sensitivity (Candida tropicalis)	MIC/Sensitivity (Candida albicans [1])	MIC/Sensitivity (Candida krusei)	MIC/Sensitivity (Candida dubliniensis)	MIC/Sensitivity (Candida glabrata)	MIC/Sensitivity (Enterobacter cloacae)	MIC/Sensitivity (Acinetobacter baumannii)	MIC/Sensitivity (Staphylococcus aureus [2])	MIC/Sensitivity (Klebsiella pneumoniae)	MIC/Sensitivity (Escherichia coli)	further results
CC1CC[C@H](C(C)C)[C@@H](O)C1 (single isomer, unassigned; (+)) [(+)-Menthol]	53.1284 to 890.682 mg/mL	100.0064 to 445.341 mg/mL	221.8892 to 7125.456 mg/mL	100.0064 to 445.341 mg/mL	53.1284 to 3562.728 mg/mL	26.5642 to 445.341 mg/mL	–	–	–	–	–	–
CC(C)=CCCC(C)CCO (single isomer, unassigned; (-)) [(–)-Citronellol]	49.36 to 416.475 mg/mL	24.68 to 100.2625 mg/mL	49.36 to 1665.9 mg/mL	100.2625 to 1665.9 mg/mL	24.68 to 208.2375 mg/mL	49.36 to 208.2375 mg/mL	–	–	–	–	–	–
CC12CCC(CC1)C(C)(C)O2 [1,8-Cineole]	–	–	–	–	–	–	0.00563 mg/mL (≈ 0.0365 mM)	0.00563 mg/mL (≈ 0.0365 mM)	0.00563 to 115.1 mg/mL	0.01125 mg/mL (≈ 0.0729 mM)	0.00281 mg/mL (≈ 0.0182 mM)	MIC/Sensitivity (Klebsiella oxytoca): 0.00563 mg/mL (≈ 0.0365 mM); MIC/Sensitivity (Enterobacter aerogenes): 0.00281 mg/mL (≈ 0.0182 mM); MIC (Staphylococcus aureus [2]): 28,800– 57,600 μg/ml; activity at the tested concentrations [3]: no activity; MIC/Sensitivity [4]: 57.56 mg/mL (≈ 373 mM); MIC/Sensitivity [5]: 307 mg/mL (≈ 1990 mM); MIC/Sensitivity (Salmonella spp.): 0.0075 mg/mL (≈ 0.0486 mM); FICI [6, 11]: 0.1
CC(C)=CCC[C@@H](C)CCO [(+)-Citronellol]	49.36 to 416.475 mg/mL	24.68 to 100.2625 mg/mL	49.36 to 1665.9 mg/mL	100.2625 to 832.95 mg/mL	24.68 to 208.2375 mg/mL	49.36 to 208.2375 mg/mL	–	–	–	–	–	–
CC(C)[C@@H]1CC[C@@H](C)CC1=O [(–)-Menthone]	894.65 to 14314.4 mg/mL	1789.3 to 14314.4 mg/mL	1789.3 to 28628.8 mg/mL	3578.6 to 7157.2 mg/mL	894.65 to 14314.4 mg/mL	1789.3 to 14314.4 mg/mL	–	–	–	–	–	MIC/Sensitivity [4]: 6.98 mg/mL (≈ 45.3 mM); MIC/Sensitivity [5]: 27.91 mg/mL (≈ 181 mM)
CC1=CCC2CC1C2(C)C (stereo not drawn) [(–)-α-Pinene]	429.1245 to 1716.498 mg/mL	6865.992 to 27463.968 mg/mL	858.249 to 54927.936 mg/mL	858.249 to 1716.498 mg/mL	858.249 to 27463.968 mg/mL	858.249 to 54927.936 mg/mL	–	–	–	–	–	–
C=C1C2CCC(C2)C1(C)C (stereo not shown) [Camphene]	–	–	–	–	–	–	–	0.02 mg/mL (≈ 0.147 mM)	–	0.03 mg/mL (≈ 0.22 mM)	0.015 mg/mL (≈ 0.11 mM)	–
CC12CCC(CC1=O)C2(C)C (stereo not shown) [Camphor]	59.3697 to 1978.99 mg/mL	246.6126 to 989.495 mg/mL	494.7475 to 3957.98 mg/mL	246.6126 to 3957.98 mg/mL	246.6126 to 1978.99 mg/mL	59.3697 to 989.495 mg/mL	0.0061 mg/mL (≈ 0.0401 mM)	0.01017 mg/mL (≈ 0.0668 mM)	0.00763 mg/mL (≈ 0.0501 mM)	0.00508 mg/mL (≈ 0.0334 mM)	0.00763 mg/mL (≈ 0.0501 mM)	MIC/Sensitivity (Klebsiella oxytoca): 0.01017 mg/mL (≈ 0.0668 mM); MIC/Sensitivity (Enterobacter aerogenes): 0.01525 mg/mL (≈ 0.1 mM); MIC/Sensitivity (Pseudomonas aeruginosa): 0.0061 mg/mL (≈ 0.0401 mM); MIC/Sensitivity (Salmonella spp.): 0.0061 mg/mL (≈ 0.0401 mM)
C=C(C)C1CC=C(C)C(=O)C1 (stereo not shown) [Carvone]	–	–	–	–	–	–	0.0091 mg/mL (≈ 0.0606 mM)	0.00758 mg/mL (≈ 0.0505 mM)	0.01138 mg/mL (≈ 0.0758 mM)	0.01517 mg/mL (≈ 0.101 mM)	0.01138 mg/mL (≈ 0.0758 mM)	MIC/Sensitivity (Klebsiella oxytoca): 0.01138 mg/mL (≈ 0.0758 mM); MIC/Sensitivity (Enterobacter aerogenes): 0.00569 mg/mL (≈ 0.0379 mM); MIC/Sensitivity (Pseudomonas aeruginosa): 0.0091 mg/mL (≈ 0.0606 mM); MIC/Sensitivity (Salmonella spp.): 0.02275 mg/mL (≈ 0.151 mM)
C=CC(C)(CCC=C(C)C)OC(C)=O (stereo not shown) [Linalyl acetate]	–	–	–	–	–	–	–	–	46.9 mg/mL	–	–	MIC (Staphylococcus aureus [2]): 28,200–112,600 μg/ml; MIC/Sensitivity [5]: 450.5 mg/mL; FICI ([6]; in combination with methicillin): 0.4; FICI [6, 11]: 0.6
CC(C)[C@@H]1CC[C@@H](C)CC1=O [Menthone]	–	–	–	–	–	–	–	–	27.9 mg/mL (≈ 181 mM)	–	–	–
C=CCc1ccc(OC)c(OC)c1 [Methyl eugenol]	–	–	1.25 mg/mL (≈ 7.01 mM)	–	–	–	–	–	–	–	–	MIC/Sensitivity (Candida auris [7]): 1.25 mg/mL (≈ 7.01 mM); Mechanisms of action (Candida auris [8]): • Reduced proteinase production and host cell adherence; Mechanisms of action (Candida albicans [9]): • Reduced proteinase production
C=CC(=C)CCC=C(C)C [Myrcene]	–	–	–	–	–	–	0.00775 mg/mL (≈ 0.0569 mM)	–	–	0.0155 mg/mL (≈ 0.114 mM)	0.00194 mg/mL (≈ 0.0142 mM)	–
CC(C)[C@]12CC(=O)[C@H](C)[C@H]1C2 [Thujone]	3677.8768 to 14711.5072 mg/mL	919.4692 to 7355.7536 mg/mL	459.7346 to 7355.7536 mg/mL	919.4692 to 7355.7536 mg/mL	919.4692 to 7355.7536 mg/mL	1838.9384 to 14711.5072 mg/mL	–	–	–	–	–	–
CC1CCC(C(C)C)C(O)C1 (stereo not shown) [menthol]	–	–	–	–	–	–	–	–	–	–	–	activity at the tested concentrations [3]: no activity
CN(C)[C@@H]1C(O)=C(C(N)=O)C(=O)[C@@]2(O)C(O)=C3C(=O)c4c(O)cccc4[C@@](C)(O)[C@H]3C[C@@H]12 [tetracycline, reference compound]	–	–	–	–	–	–	–	–	–	–	–	tetracycline MIC (Staphylococcus aureus [2]; before combination): 0.114 mg/mL; tetracycline MIC (Staphylococcus aureus [2]; combined with thymol): 0.101 mg/mL
O=CC(Br)=Cc1ccccc1 [α-Bromo-trans-cinnamaldehyde]	–	–	–	–	–	–	–	–	–	–	–	Mechanisms of action (Staphylococcus aureus [10]): • Gene expression reduction linked to intracellular adhesion
CC1=CCC2CC1C2(C)C (stereo not drawn) [α-Pinene]	–	–	–	–	–	–	0.01188 mg/mL (≈ 0.0872 mM)	0.01188 mg/mL (≈ 0.0872 mM)	0.01188 mg/mL (≈ 0.0872 mM)	0.02375 mg/mL (≈ 0.174 mM)	0.01188 mg/mL (≈ 0.0872 mM)	activity at the tested concentrations [3]: no activity
C=C1CCC2CC1C2(C)C (stereo not drawn) [β-Pinene]	213.8811 to 431.8491 mg/mL	103.5348 to 3432.996 mg/mL	213.8811 to 13731.984 mg/mL	103.5348 to 429.1245 mg/mL	103.5348 to 6865.992 mg/mL	103.5348 to 1716.498 mg/mL	0.00506 mg/mL (≈ 0.0371 mM)	0.0135 mg/mL (≈ 0.0991 mM)	0.01013 mg/mL (≈ 0.0744 mM)	0.01013 mg/mL (≈ 0.0744 mM)	0.00506 mg/mL (≈ 0.0371 mM)	MIC/Sensitivity (Klebsiella oxytoca): 0.0135 mg/mL (≈ 0.0991 mM); MIC/Sensitivity (Enterobacter aerogenes): 0.02025 mg/mL (≈ 0.149 mM); MIC/Sensitivity (Pseudomonas aeruginosa): 0.01013 mg/mL (≈ 0.0744 mM); MIC/Sensitivity (Salmonella spp.): 0.0081 mg/mL (≈ 0.0595 mM)
CC1=CCC(C(C)C)=CC1 [γ-Terpinene]	–	–	–	–	–	–	0.0065 mg/mL (≈ 0.0477 mM)	0.00488 mg/mL (≈ 0.0358 mM)	–	0.00488 mg/mL (≈ 0.0358 mM)	–	MIC/Sensitivity (Klebsiella oxytoca): 0.00488 mg/mL (≈ 0.0358 mM); MIC/Sensitivity (Enterobacter aerogenes): 0.00488 mg/mL (≈ 0.0358 mM); MIC/Sensitivity (Campylobacter jejuni; Campylobacter jejuni, ref Šimunović et al. 2020): 1 mg/mL (≈ 7.34 mM); MIC (Campylobacter jejuni; ref Šimunović et al. (2020)): 1,000 μg/ml; MIC/Sensitivity (Salmonella spp.): 0.0065 mg/mL (≈ 0.0477 mM)
(+)-α-Pinene	51.7674 to 429.1245 mg/mL	429.1245 to 1716.498 mg/mL	51.7674 to 1716.498 mg/mL	51.7674 to 858.249 mg/mL	103.5348 to 1716.498 mg/mL	51.7674 to 1716.498 mg/mL	–	–	–	–	–	–
(–)-Limonene	50.4051 to 213.8811 mg/mL	213.8811 to 1716.498 mg/mL	8.1738 to 13731.984 mg/mL	8.1738 to 429.1245 mg/mL	12.2607 to 1716.498 mg/mL	50.4051 to 3432.996 mg/mL	–	–	–	–	–	–
